Target: T1, HCV-NS5b (Hepatitis C virus genotype 1b, UniProt Q9WMX2)
T1 construct: (His)6 (C); made in house; host or cells: XL-1 cells (E. coli), IPTG-inducible plasmid, nickel-NTA purification
Experiment: HCV-NS5b enzyme assay (incorporation of radiolabeled UTP)
Type: biochemical
Settings: for inhibition at 33 µM: enzyme inhibition at compound concentration of 33 uM; for inhibition at 100 µM: read-out: % inh@100, enzyme inhibition at compound concentration of 100 uM
Source text: The coding sequence of NS5b protein was cloned by PCR from pFKI389luc/NS3-3′/ET as described by Lohmann, V., et al. (1999) Science 285, 110-113 using the following primers: […]
The cloned fragment was missing the C terminus 21 amino acid residues. The cloned fragment was inserted into an IPTG-inducible expression plasmid that provided an epitope tag (His)6 at the carboxy terminus of the protein.
The recombinant enzyme was expressed in XL-1 cells and after induction of expression, the protein was purified using affinity chromatography on a nickel-NTA column. Storage condition was 10 mM Tris-HCl pH 7.5, 50 mM NaCl, 0.1 mM EDTA, 1 mM DTT, 20% glycerol at −20° C.
The polymerase activity was assayed by measuring incorporation of radiolabeled UTP into a RNA product using a biotinylated, heteropolymeric template, which included a portion of the HCV genome. Typically, the assay mixture (50 μL) contained 10 mM Tris-HCl (pH 7.5), 5 mM MgCl2, 0.2 mM EDTA, 10 mM KCl, 1 unit/μL RNAsin, 1 mM DTT, 10 μM each of NTP, including [^3H]-UTP, and 10 ng/μL heteropolymeric template. Test compounds were initially dissolved in 100% DMSO and further diluted in aqueous buffer containing 5% DMSO. Typically, compounds were tested at concentrations between 1 nM and 100 μM. Reactions were started with addition of enzyme and allowed to continue at 37° C. for 2 hours. Reactions were quenched with 8 μL of 100 mM EDTA and reaction mixtures (30 μL) were transferred to streptavidin-coated scintillation proximity microtiter plates (FlashPlates) and incubated at 4° C. overnight. Incorporation of radioactivity was determined by scintillation counting.
Shown in Table IX below are the values for enzyme inhibition measured at compound concentrations of 100 and 33 uM, (% inh@[…] and % inh@33, respectively). The percent inhibition values are calculated from the differential incorporation of radioactivity compared to a control reaction without compound: % inhibition=100−[(CountsINH−CountsBKG)/CountsCTRL−CountsBKG)×100 where CountsINH is the signal of the testwell with inhibitor, CountsBKG is the background signal and CountsCTRL is the signal of a testwell without inhibitor.

In the case of `COc1ccc(-c2ccc(Cl)cc2)c(-c2ccc3cc(-c4nc5cc(C(=O)O)ccc5n4C4CCCC4)ccc3n2)c1` [Compound 529, 2-[2-(4′-chloro-4-methoxy-biphen-2-yl)-quinolin-6-yl]-1-cyclopentyl-1H-benzoimidazole-5-carboxylic acid], the inhibition at 33 µM is reported as 99.2% and the inhibition at 100 µM is reported as 99.8%.
For `O=C(N[C@@H](Cc1ccc(O)cc1)C(=O)O)c1ccc2c(c1)nc(-c1ccc3nc(-c4ccccc4)cnc3c1)n2C1CCCCC1` [Compound 519, 2-{[1-Cyclohexyl-2-(2-phenyl-quinoxalin-6-yl)-1H-benzoimidazole-5-carbonyl]-amino}-3-(4-hydroxy-phenyl)-propionic acid], the inhibition at 33 µM was 96.9% and the inhibition at 100 µM was 99.1%.
In the case of `COc1ccc(-c2ccc(Cl)cc2)c(-c2ccc3cc(-c4nc5cc(C(=O)O)ccc5n4C4CC(C)CC(C)(C)C4)ccc3n2)c1` (stereo not drawn) [Compound 555, 2-[2-(4′-chloro-4-methoxy-biphen-2-yl)-quinolin-6-yl]-1-(3,3,5-trimethyl-cyclohexyl)-1H-benzoimidazole-5-carboxylic acid], the inhibition at 33 µM is reported as 101% and the inhibition at 100 µM is reported as 101%.
`NC(=O)[C@H](Cc1ccccc1)NC(=O)c1ccc2cc(-c3nc4cc(C(=O)O)ccc4n3C3CCCCC3)ccc2n1` [Compound 542, 2-[2-(1-Carbamoyl-2-phenylethylcarbamoyl)quinolin-6-yl]-1-cyclohexyl-1H-benzimidazole-5-carboxylic acid] showed an inhibition at 33 µM of 81.1% and an inhibition at 100 µM of 98.6%.
`O=C(O)c1ccc2c(c1)nc(-c1ccc3nc(-c4ccc(-c5ccccc5)cc4)ccc3c1)n2C1CCCCC1` [Compound 390, 2-(2-biphenyl-4-yl-quinolin-6-yl)-1-cyclohexyl-1H-benzoimidazole-5-carboxylic acid] gave an inhibition at 33 µM of 79.9% and an inhibition at 100 µM of 92.5%.
In the case of `NC(=O)[C@H](CO)NC(=O)c1ccc2cc(-c3nc4cc(C(=O)O)ccc4n3C3CCCCC3)ccc2n1` [Compound 385, 2-[2-(1-Carbamoyl-2-hydroxyethylcarbamoyl)quinolin-6-yl]-1-cyclohexyl-1H-benzimidazole-5-carboxylic acid], the inhibition at 33 µM is reported as 42.6% and the inhibition at 100 µM is reported as 76.2%.
Work on `O=C(O)c1ccc2c(c1)nc(-c1ccc3nc(-c4cccc(OCC(=O)N5CCCC5)c4)ccc3c1)n2C1CCCCC1` [Compound 503, 1-cyclohexyl-2-{2-[3-(2-oxo-2-pyrrolidin-1-yl-ethoxy)-phenyl]-quinolin-6-yl}-1H-benzoimidazole-5-carboxylic acid] yielded an inhibition at 33 µM of 95.8% and an inhibition at 100 µM of 97%.
`CCOc1ccc([N+](=O)[O-])cc1-c1ccc2cc(-c3nc4cc(C(=O)O)ccc4n3C3CCCCC3)ccc2n1` [Compound 404, 1-cyclohexyl-2-[2-(2-ethoxy-5-nitro-phenyl)-quinolin-6-yl]-1H-benzoimidazole-5-carboxylic acid] gave an inhibition at 33 µM of 102% and an inhibition at 100 µM of 101%.
With `c1ccc(-c2cnc3cc(-c4nc5cc(-c6nn[nH]n6)ccc5n4C4CCCCC4)ccc3n2)cc1` [Compound 258, 6-[1-cyclohexyl-5-(1H-tetrazol-5-yl)-1H-benzimidazol-2-yl]-2-phenylquinoxaline] the inhibition at 33 µM was 97% and the inhibition at 100 µM was 98%.
For `O=C(O)c1ccc2c(c1)nc(-c1ccc3nc(-c4cc(C(=O)N5CCCC5)ccc4-c4ccc(F)cc4)ccc3c1)n2C1CCCCC1` [Compound 549, 1-Cyclohexyl-2-{2-[4′-fluoro-4-(pyrrolidine-1-carbonyl)biphen-2-yl]quinolin-6-yl}-1H-benzimidazole-5-carboxylic acid], the inhibition at 33 µM was 100% and the inhibition at 100 µM was 102%.
With `O=C(O)c1ccc2c(c1)nc(-c1ccc3nc(-c4cnccn4)ccc3c1)n2C1CCCCC1` [Compound 442, 1-cyclohexyl-2-(2-pyrazin-2-yl-quinolin-6-yl)-1H-benzoimidazole-5-carboxylic acid] the inhibition at 33 µM was 92.5% and the inhibition at 100 µM was 98.2%.
`CN1CCN(C(=O)c2ccc3c(c2)nc(-c2cc4ccc(-c5ccccc5-c5ccccc5)nc4cc2F)n3C2CCCCC2)CC1` [Compound 522, [2-(2-Biphen-2-yl-7-fluoro-quinolin-6-yl)-1-cyclohexyl-1H-benzoimidazol-5-yl]-(4-methyl-piperazin-1-yl)-methanone] gave an inhibition at 33 µM of 76.7% and an inhibition at 100 µM of 74.2%.
`COc1ccc(-c2ccco2)c(-c2ccc3cc(-c4nc5cc(C(=O)O)ccc5n4C4CCCCC4)ccc3n2)c1` [Compound 454, 1-cyclohexyl-2-[2-(2-furan-2-yl-5-methoxy-phenyl)-quinolin-6-yl]-1H-benzoimidazole-5-carboxylic acid] showed an inhibition at 33 µM of 98.3% and an inhibition at 100 µM of 101%.
Molecule `O=C(O)c1ccc2c(c1)nc(-c1ccc3nc(-c4ccc(-n5ccnc5)cc4)ccc3c1)n2C1CCCCC1` [Compound 473, 1-cyclohexyl-2-[2-(4-imidazol-1-yl-phenyl)-quinolin-6-yl]-1H-benzoimidazole-5-carboxylic acid] has an inhibition at 33 µM of 99.2% and an inhibition at 100 µM of 97.4%.
`O=C(O)c1ccc2cc(NC(=O)c3ccc4c(c3)nc(-c3ccc5nc(-c6ccccc6)cnc5c3)n4C3CCCCC3)ccc2c1` [Compound 526, 6-{[1-Cyclohexyl-2-(2-phenyl-quinoxalin-6-yl)-1H-benzoimidazole-5-carbonyl]-amino}-naphthalene-2-carboxylic acid] was tested, and the inhibition at 33 µM was 96.8% and the inhibition at 100 µM was 99%.
`O=C(O)c1ccc2c(c1)nc(-c1ccc3ccc(-c4ccccc4)nc3c1)n2C1CCCCC1` [Compound 405, 1-Cyclohexyl-2-(2-phenyl-quinolin-7-yl)-1H-benzoimidazole-5-carboxylic acid] gave an inhibition at 33 µM of 90.5% and an inhibition at 100 µM of 98.9%.
For `O=C(O)c1ccc2c(c1)nc(-c1ccc3cc(-c4ccccc4)cnc3c1)n2C1CCCCC1` [Compound 351, 1-cyclohexyl-2-(3-phenyl-quinolin-7-yl)-1H-benzoimidazole-5-carboxylic acid], the inhibition at 33 µM was 94.9% and the inhibition at 100 µM was 98.1%.
`O=C(O)CC[C@H](NC(=O)c1ccc2c(c1)nc(-c1ccc3nc(-c4ccccc4)cnc3c1)n2C1CCCCC1)C(=O)O` [Compound 245, 2-{[1-Cyclohexyl-2-(2-phenyl-quinoxalin-6-yl)-1H-benzoimidazole-5-carbonyl]-amino}-pentanedioic acid] was tested, and the inhibition at 33 µM was 73.2% and the inhibition at 100 µM was 97.4%.
With `O=C(O)c1ccc2c(c1)nc(-c1ccc3nc(-c4ccccc4)cc(NCCCn4ccnc4)c3c1)n2C1CCCCC1` [Compound 451, 1-cyclohexyl-2-[4-(3-imidazol-1-yl-propylamino)-2-phenyl-quinolin-6-yl]-1H-benzoimidazole-5-carboxylic acid] the inhibition at 33 µM was 76.3% and the inhibition at 100 µM was 95.6%.
`O=C(N[C@H](C(=O)O)C1CCCCC1)c1ccc2c(c1)nc(-c1ccc3nc(-c4ccccc4)cnc3c1)n2C1CCCCC1` [Compound 243, Cyclohexyl-{[1-cyclohexyl-2-(2-phenyl-quinoxalin-6-yl)-1H-benzoimidazole-5-carbonyl]-amino}-acetic acid] showed an inhibition at 33 µM of 96% and an inhibition at 100 µM of 98.1%.
`O=C(O)c1ccc2c(c1)nc(-c1ccc3nc(-c4ccc(F)cc4)c(-c4ccc(F)cc4)nc3c1)n2C1CCCCC1` [Compound 409, 2-[2,3-Bis-(4-fluorophenyl)quinoxalin-6-yl]-1-cyclohexyl-1H-benzimidazole-5-carboxylic acid] gave an inhibition at 33 µM of 97.9% and an inhibition at 100 µM of 99.9%.
